The term IC50 denotes the concentration needed to halve the response being measured. A low value points to greater potency.

T2 sequence (P10721 589-937 limits assumed): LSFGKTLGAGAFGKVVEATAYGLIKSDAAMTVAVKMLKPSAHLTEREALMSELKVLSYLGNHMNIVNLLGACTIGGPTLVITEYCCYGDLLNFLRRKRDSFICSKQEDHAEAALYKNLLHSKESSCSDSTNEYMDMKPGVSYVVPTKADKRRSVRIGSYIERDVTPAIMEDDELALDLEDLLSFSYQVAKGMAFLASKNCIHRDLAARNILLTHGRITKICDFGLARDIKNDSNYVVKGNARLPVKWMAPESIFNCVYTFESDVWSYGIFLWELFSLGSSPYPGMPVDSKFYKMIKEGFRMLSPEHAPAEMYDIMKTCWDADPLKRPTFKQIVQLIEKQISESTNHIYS

One experiment deals with T1, TrkB (Homo sapiens, UniProt Q16620).
T1 construct: purchased Upstate 14-507M
T1 sequence (Q16620 526-822 limits assumed): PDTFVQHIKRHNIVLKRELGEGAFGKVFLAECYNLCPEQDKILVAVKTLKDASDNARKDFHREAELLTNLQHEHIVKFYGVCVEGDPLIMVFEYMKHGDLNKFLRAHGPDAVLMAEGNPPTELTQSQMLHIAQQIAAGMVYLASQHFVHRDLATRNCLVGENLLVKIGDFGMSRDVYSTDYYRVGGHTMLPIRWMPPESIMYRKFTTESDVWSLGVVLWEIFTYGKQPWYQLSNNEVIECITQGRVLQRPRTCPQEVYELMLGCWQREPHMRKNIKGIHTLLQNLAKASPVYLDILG
The experiment is described as follows: TrkB fluorescence polarization kinase assay. The settings on record: 50 nM TrkB, 150 uM ATP, 30 minutes; uncertainty ±10%. Type of experiment: biochemical. Here is the method:
The compounds of the present invention are also specific inhibitors of TrkB. Selection of preferred compounds of Formula I for use as TrkB inhibitors was performed in the following manner. The TrkB assay utilized the fluorescein-labeled phosphopeptide and the anti-phosphotyrosine antibody included in the Panvera Phospho-Tyrosine Kinase Kit (Green) supplied by Invitrogen. When TrkB phosphorylated poly Glu4Tyr, the fluorescein-labeled phosphopeptide was displaced from the anti-phosphotyrosine antibody by the phosphorylated poly Glu4Tyr, thus decreasing the FP value. The TrkB kinase reaction was incubated at room temperature for 30 minutes under the following conditions: 50 nM TrkB (Upstate, catalog # 14-507M), 20 ug/mL poly Glu4Tyr, 150 uM ATP, 5 mM MgCl2, 1% compound in DMSO. The kinase reaction was stopped with the addition of EDTA. The fluorescein-labeled phosphopeptide and the anti-phosphotyrosine antibody were added and incubated for 30 minutes at room temperature. Data points were an average of triplicate samples.
(In general: Polarisation of emitted light reports the rotation of a fluorescent probe.)
In turn, `CO/N=C/c1c(N)ncnc1N1CCN(C(=O)Nc2ccc(C3CCCCC3)cc2)CC1` [Example 19, 4-[6-Amino-5-(methoxyimino-methyl)-pyrimidin-4-yl]-piperazine-1-carboxylic acid (4-cyclohexyl-phenyl)-amide] registered an IC50 of 1680 nM.

Turning to `CC(C)Oc1ccc(NC(=O)N2CCN(c3ncnc(N)c3/C=N/OCCCO)CC2)cc1` [Example 3, 4-{6-Amino-5-[(3-hydroxy-propoxyimino)-methyl]-pyrimidin-4-yl}-piperazine-1-carboxylic acid (4-isopropoxy-phenyl)-amide], the IC50 is 1300 nM. On the same count and under the same terms, with `CO/N=C/c1c(N)ncnc1N1CCN(C(=O)Nc2ccc(C(C)C)cc2)CC1` [Example 8, 4-[6-Amino-5-(methoxyimino-methyl)-pyrimidin-4-yl]-piperazine-1-carboxylic acid (4-isopropyl-phenyl)-amide] the figure was 1100 nM; with `CCO/N=C/c1c(N)ncnc1N1CCN(C(=O)Nc2ccc(N3CCOCC3)cc2)CC1` [Example 15, 4-[6-Amino-5-(ethoxyimino-methyl)-pyrimidin-4-yl]-piperazine-1-carboxylic acid (4-morpholin-4-yl-phenyl)-amide], 7760 nM. The same measure, in the same setting: then `CO/N=C/c1c(N)ncnc1N1CCN(C(=O)Cc2ccc(C(C)C)cc2)CC1` [Example 7, 4-Amino-6-{4-[2-(4-isopropyl-phenyl)-acetyl]-piperazin-1-yl}-pyrimidine-5-carbaldehyde O-methyl-oxime], with 500 nM; and `CO/N=C/c1c(N)ncnc1N1CCN(C(=O)Nc2ccc(OC3CCC3)nc2)CC1` [Example 6, 4-[6-Amino-5-(methoxyimino-methyl)-pyrimidin-4-yl]-piperazine-1-carboxylic acid (6-cyclobutoxy-pyridin-3-yl)-amide], with 3500 nM; and `CO/N=C/c1c(N)ncnc1N1CCN(C(=O)Nc2ccc(N3CCCCC3)cc2)CC1` [Example 4, 4-[6-Amino-5-(methoxyimino-methyl)-pyrimidin-4-yl]-piperazine-1-carboxylic acid (4-piperidin-1-yl-phenyl)-amide], with 4000 nM.

In turn, `CO/N=C/c1c(N)ncnc1N1CCN(C(=O)Nc2ccc(N3CCOCC3)cc2)CC1` [Example 5, 4-[6-Amino-5-(methoxyimino-methyl)-pyrimidin-4-yl]-piperazine-1-carboxylic acid (4-morpholin-4-yl-phenyl)-amide] gave an IC50 of 8400 nM. On the same count and under the same terms, then `CCO/N=C/c1c(N)ncnc1N1CCN(C(=O)Nc2ccc(N3CCCCC3)cc2)CC1` [Example 11, 4-[6-Amino-5-(ethoxyimino-methyl)-pyrimidin-4-yl]-piperazine-1-carboxylic acid (4-piperidin-1-yl-phenyl)-amide], with 2600 nM; and `CO/N=C/c1c(N)ncnc1N1CCN(C(=O)Nc2ccc(N3CCCC3)cc2)CC1` [Example 18, 4-[6-Amino-5-(methoxyimino-methyl)-pyrimidin-4-yl]-piperazine-1-carboxylic acid (4-pyrrolidin-1-yl-phenyl)-amide], with 2600 nM. Same read-out and setting: then `CO/N=C/c1c(N)ncnc1N1CCN(C(=O)Nc2ccc(OC(C)C)cc2)CC1` [Example 1, 4-[6-Amino-5-(methoxyimino-methyl)-pyrimidin-4-yl]-piperazine-1-carboxylic acid (4-isopropoxy-phenyl)-amide], with 800 nM.

For the compound `CO/N=C/c1c(N)ncnc1N1CCN(C(=O)Nc2ccc(Cl)cc2)CC1` [Example 20, 4-[6-Amino-5-(methoxyimino-methyl)-pyrimidin-4-yl]-piperazine-1-carboxylic acid (4-chloro-phenyl)-amide], 15600 nM corresponded to half-maximal inhibition (IC50). The compound `CC(C)Oc1ccc(NC(=O)N2CCN(c3ncnc(N)c3/C=N/OCC(=O)N3CCOCC3)CC2)cc1` [Example 16, 4-{6-Amino-5-[(2-morpholin-4-yl-2-oxo-ethoxyimino)-methyl]-pyrimidin-4-yl}-piperazine-1-carboxylic acid (4-isopropoxy-phenyl)-amide] registered an IC50 of 11100 nM.

The compound `CCO/N=C/c1c(N)ncnc1N1CCN(C(=O)Nc2ccc(OC(C)C)cc2)CC1` [Example 9, 4-[6-Amino-5-(ethoxyimino-methyl)-pyrimidin-4-yl]-piperazine-1-carboxylic acid (4-isopropoxy-phenyl)-amide (anti-configuration for —C═N—O—)] came in with an IC50 of 600 nM. On the same count and under the same terms, with `CO/N=C/c1c(N)ncnc1N1CCN(C(=O)Nc2ccc(OC3CCCC3)nc2)CC1` [Example 17, 4-[6-Amino-5-(methoxyimino-methyl)-pyrimidin-4-yl]-piperazine-1-carboxylic acid (6-cyclopentyloxy-pyridin-3-yl)-amide] the figure was 800 nM; with `CCO/N=C/c1c(N)ncnc1N1CCN(C(=O)Cc2ccc(C(C)C)cc2)CC1` [Example 13, 4-Amino-6-{4-[2-(4-isopropyl-phenyl)-acetyl]-piperazin-1-yl}-pyrimidine-5-carbaldehyde O-ethyl-oxime (anti-configuration for —C═N—O—)], 2200 nM; with `CC(C)Oc1ccc(NC(=O)N2CCN(c3ncnc(N)c3/C=N/OCCN3CCOCC3)CC2)cc1` [Example 2, 4-{6-Amino-5-[(2-morpholin-4-yl-ethoxyimino)-methyl]-pyrimidin-4-yl}-piperazine-1-carboxylic acid (4-isopropoxy-phenyl)-amide], 10100 nM. For `CCO/N=C\c1c(N)ncnc1N1CCN(C(=O)Nc2ccc(OC(C)C)cc2)CC1` [Example 10, 4-[6-Amino-5-(ethoxyimino-methyl)-pyrimidin-4-yl]-piperazine-1-carboxylic acid (4-isopropoxy-phenyl)-amide (syn-configuration for —C═N—O—)], the midpoint of inhibition, the IC50, lay at 11000 nM. Same read-out and setting: with `CCO/N=C/c1c(N)ncnc1N1CCN(C(=O)Nc2ccc(OC3CCC3)nc2)CC1` [Example 12, 4-[6-Amino-5-(ethoxyimino-methyl)-pyrimidin-4-yl]-piperazine-1-carboxylic acid (6-cyclobutoxy-pyridin-3-yl)-amide] the figure was 1600 nM; with `CO/N=C/c1c(N)ncnc1N1CCN(C(=O)Nc2ccc(Oc3ccccc3)cc2)CC1` [Example 21, 4-[6-Amino-5-(methoxyimino-methyl)-pyrimidin-4-yl]-piperazine-1-carboxylic acid (4-phenoxy-phenyl)-amide], 7400 nM; with `CCO/N=C\c1c(N)ncnc1N1CCN(C(=O)Cc2ccc(C(C)C)cc2)CC1` [Example 14, 4-Amino-6-{4-[2-(4-isopropyl-phenyl)-acetyl]-piperazin-1-yl}-pyrimidine-5-carbaldehyde O-ethyl-oxime (syn-configuration for —C═N—O—)], 1400 nM.

The next experiment concerns the target T2, isolated kinase domain of the human c-kit receptor (Homo sapiens, UniProt P10721).
T2 construct: isolated kinase domain of the human c-kit receptor; purchased ProQinase lot SP005
The experiment is described as follows: c-Kit fluorescence polarization kinase assay. Type of experiment: biochemical. The following applies: 1 nM c-kit, 50 uM ATP, 45 minutes; uncertainty ±10%. As to the method:
The compounds of the present invention are also specific inhibitors of c-Kit. Selection of preferred compounds of Formula I for use as c-Kit inhibitors was performed in the following manner using an in vitro kinase assay to measure inhibition of the isolated kinase domain of the human c-kit receptor in a fluorescence polarization (FP) protocol. The c-kit assay utilized the fluorescein-labeled phosphopeptide and the anti-phosphotyrosine antibody included in the Panvera Phospho-Tyrosine Kinase Kit (Green) supplied by Invitrogen. When c-kit phosphorylated the poly Glu4Tyr, the fluorescein-labeled phosphopeptide was displaced from the anti-phosphotyrosine antibody by the phosphorylated poly Glu4Tyr, thus decreasing the FP value. The c-kit kinase reaction was incubated at room temperature for 45 minutes under the following conditions: 1 nM c-kit (ProQinase, lot SP005), 100 ug/mL poly Glu4Tyr, 50 uM ATP, 5 mM MgCl2, 1 mM DTT, 0.01% Tween-20, 1% DMSO or compound in […], pH 7.5. The kinase reaction was stopped with the addition of EDTA. The fluorescein-labeled phosphopeptide and the anti-phosphotyrosine antibody were added and incubated for 30 minutes at room temperature and fluorescence polarization was read. Data points were an average of triplicate samples.
In turn, `CCO/N=C/c1c(N)ncnc1N1CCN(C(=O)Nc2ccc(N3CCCCC3)cc2)CC1` [Example 11, 4-[6-Amino-5-(ethoxyimino-methyl)-pyrimidin-4-yl]-piperazine-1-carboxylic acid (4-piperidin-1-yl-phenyl)-amide] registered a concentration for half-maximal inhibition (IC50) of 5.1 nM.

Regarding `CO/N=C/c1c(N)ncnc1N1CCN(C(=O)Nc2ccc(OC(C)C)cc2)CC1` [Example 1, 4-[6-Amino-5-(methoxyimino-methyl)-pyrimidin-4-yl]-piperazine-1-carboxylic acid (4-isopropoxy-phenyl)-amide], the IC50 is 10.5 nM. With `CC(C)Oc1ccc(NC(=O)N2CCN(c3ncnc(N)c3/C=N/OCCN3CCOCC3)CC2)cc1` [Example 2, 4-{6-Amino-5-[(2-morpholin-4-yl-ethoxyimino)-methyl]-pyrimidin-4-yl}-piperazine-1-carboxylic acid (4-isopropoxy-phenyl)-amide], the midpoint of inhibition, the IC50, lay at 26 nM.
